Experimental data taken from ChEMBL document CHEMBL1201862, “PubChem BioAssay data set” (2004).
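These data come from cells grown in 96-well plates and exposed to compound for 48 hours at five concentrations. At the GI50, growth is halved.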 Active and inactive are the calls of the source. Cut-off read from the data, not from the text of the source: active = GI50 up to about 1.1 µM and inactive = higher.

Legend:
Assay in all cases: NCI anticancer screen, dose series, 48 h
NCI-H23 = system: NCI-H23
HCT-116 = system: HCT-116
SN12C = system: SN12C
TK-10 = system: TK-10
SF-539 = system: SF-539
U-251 = system: U-251
SNB-19 = system: SNB-19
CCRF-CEM = system: CCRF-CEM
HOP-92 = system: HOP-92
MOLT-4 = system: MOLT-4
COLO 205 = system: COLO 205
M14 = system: M14
ACHN = system: ACHN
EKVX = system: EKVX
OVCAR-8 = system: OVCAR-8
HT-29 = system: HT-29
RPMI-8226 = system: RPMI-8226
HL-60 = system: HL-60
NCI-H226 = system: NCI-H226

Measured: GI50

O=c1[nH]nc(-c2ccccc2)n1/N=C/c1c(O)ccc2ccccc12
inactive: NCI-H23 26.8 µM | HCT-116 30 µM | SN12C 45.3 µM | TK-10 38.4 µM | SF-539 31.2 µM | U-251 26.1 µM | SNB-19 24.9 µM | CCRF-CEM > 100 µM | HOP-92 34.2 µM | MOLT-4 > 100 µM | COLO 205 31.8 µM | M14 93.8 µM | ACHN 26.3 µM | EKVX > 100 µM | OVCAR-8 48.6 µM | HT-29 86.5 µM | RPMI-8226 82.2 µM

COC(=O)N/N=C/c1oc(-c2cccc([N+](=O)[O-])c2)c(-c2cccc([N+](=O)[O-])c2)c1[N+](=O)[O-]
inactive: NCI-H23 > 100 µM | HCT-116 > 100 µM | SN12C > 100 µM | TK-10 > 100 µM | U-251 > 100 µM | SNB-19 > 100 µM | CCRF-CEM 22.1 µM | HOP-92 49.3 µM | MOLT-4 24.2 µM | COLO 205 > 100 µM | HL-60 19.3 µM | M14 > 100 µM | ACHN > 100 µM | EKVX > 100 µM | OVCAR-8 > 100 µM | HT-29 > 100 µM | RPMI-8226 30.1 µM

C1CC[C@H]2SSC3CCCC[C@H]3SSC2C1 (some centres not stated)
inactive: NCI-H23 > 100 µM | HCT-116 > 100 µM | SN12C > 100 µM | TK-10 > 100 µM | SF-539 > 100 µM | U-251 > 100 µM | SNB-19 > 100 µM | CCRF-CEM > 100 µM | HOP-92 > 100 µM | MOLT-4 > 100 µM | COLO 205 > 100 µM | HL-60 > 100 µM | M14 > 100 µM | EKVX > 100 µM | OVCAR-8 > 100 µM | HT-29 > 100 µM | RPMI-8226 > 100 µM

CCOC(=O)Cc1csc2[n+]1C(=O)/C(=C\c1cccc(Cl)c1Cl)S2
inactive: NCI-H23 13.3 µM | HCT-116 12.7 µM | SN12C 16.2 µM | TK-10 16 µM | SF-539 22.3 µM | U-251 16.6 µM | SNB-19 21 µM | CCRF-CEM 12.7 µM | HOP-92 6.85 µM | MOLT-4 10.3 µM | COLO 205 1.7 µM | HL-60 19.5 µM | M14 26.9 µM | ACHN 17.9 µM | EKVX 17.2 µM | OVCAR-8 19.5 µM | HT-29 21.8 µM | NCI-H226 14.8 µM

CCCCOC(=O)C(=O)C(CC(CC)C(=O)c1ccccc1)C(=O)C=C(C)C (configuration not stated)
inactive: NCI-H23 > 100 µM | HCT-116 > 100 µM | SN12C > 100 µM | TK-10 > 100 µM | SF-539 > 100 µM | U-251 > 100 µM | SNB-19 > 100 µM | CCRF-CEM > 100 µM | HOP-92 > 100 µM | MOLT-4 > 100 µM | COLO 205 > 100 µM | HL-60 > 100 µM | M14 > 100 µM | ACHN > 100 µM | EKVX > 100 µM | OVCAR-8 > 100 µM | NCI-H226 > 100 µM

COc1c(C)c(C/C=C(\C)CC/C=C(\C)CC/C=C(\C)CCC=C(C)C)c(OC)c(OC)c1OC
inactive: NCI-H23 > 100 µM | HCT-116 > 100 µM | SN12C > 100 µM | TK-10 > 100 µM | SF-539 > 100 µM | U-251 > 100 µM | SNB-19 > 100 µM | CCRF-CEM > 100 µM | HOP-92 > 100 µM | MOLT-4 > 100 µM | COLO 205 > 100 µM | M14 > 100 µM | ACHN > 100 µM | EKVX > 100 µM | OVCAR-8 > 100 µM | HT-29 > 100 µM
